Data from paper PMC8362126, “Proteolysis Targeting Chimera (PROTAC) for Macrophage Migration Inhibitory Factor (MIF) Has Anti‐Proliferative Activity in Lung Cancer Cells” (Angewandte Chemie (International Ed. in English), 2021).

Target: T1, MIF (Homo sapiens, UniProt P14174)
T1 sequence (P14174 2-115 limits assumed): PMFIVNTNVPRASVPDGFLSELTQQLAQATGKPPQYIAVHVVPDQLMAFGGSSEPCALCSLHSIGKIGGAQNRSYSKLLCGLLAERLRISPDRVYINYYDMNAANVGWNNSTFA
Assay: MIF immunofluorescence staining, confocal microscopy
Assay type: cell-based
Parameters: endogenous in cells; host or cells: A549 (ATCC CCL-185)
Settings: A549 cells, 1 μM, 12 hours
From the text: Since PROTACs are relatively large heterobifunctional molecules, the efficacy of these compounds may be limited by poor cell permeability.[47] In order to estimate the cellular uptake of PROTAC MD13, the intrinsic fluorescence properties of the pomalidomide part of MD13 were employed for visualization of its subcellular localization. […] In parallel, the subcellular localization of MIF and its decrease in situ upon MD13 treatment was visualized by confocal fluorescence microscopy using a fluorescent secondary antibody.
S5. Subcellular colocalization study
To visualize the intracellular location of MD13 and MIF protein, immunofluorescence staining was applied. A549 cells were seeded on glass coverslips in a 6-well plate at a density of 1x10^5 cells per well. After overnight incubation, cells were treated with 1 µM MD13 for 1 hour to study the internalization of MD13 or 12 hours to study the degradation of MIF protein.
The cells with 1-hour treatment were fixed with methanol before coverslips were mounted onto slides with anti-fading mounting medium with DAPI stain (Invitrogen, Waltham, MA. USA).
To visualize MIF protein, cells after 12-hour treatment were fixed with methanol and then unspecific binding was blocked with blocking buffer (1% BSA, 22.52 mg/mL glycine in 0.1%PBST). […]
USA). […] The pictures were acquired using a Leica SP8 confocal laser scanning microscope and analyzed by ImageJ. […]

SMILES: O=C1CCC(N2C(=O)c3cccc(NCCCCCCCC(=O)Nc4ccc(N5Cc6ccc(O)cc6OC5=O)cc4)c3C2=O)C(=O)N1 (stereo not shown) [MD13]
- MIF depletion in situ: significantly depleted MIF
